Assay results reported in ChEMBL document CHEMBL1137316, “Discovery of S-(2-guanidylethyl)-isothiourea (VUF 8430) as a potent nonimidazole histamine H4 receptor agonist” (J Med Chem, 2006).
Each block holds one molecule with its values, some of them ahead of it. Active and inactive are the calls of the source. No cut-off for these calls is given here.

How the values were obtained:
[1] = biological target: Histamine H4 receptor (Homo sapiens, UniProt Q9H3N8); assay: Displacement of [3H]histamine from human histamine H4 receptor
[2] = biological target: T1, Histamine H3 receptor (Homo sapiens, UniProt Q9Y5N1); assay: Agonist activity at human histamine H3 receptor in SK-N-MC cells assessed as inhibition of forskolin-induced cAMP-mediated CRE-beta galactosidase activity; format: functional, cell-based
[3] = biological target: Histamine H1 receptor (Homo sapiens) (UniProt P35367); assay: Agonist activity at human histamine H1 receptor at 100 uM; format: functional
[4] = biological target: T1, Histamine H3 receptor; assay: Displacement of [3H]Nalpha-methylhistamine from human histamine H3 receptor expressed in SK-N-MC cells; format: cell-based
[5] = biological target: Histamine H2 receptor (Cavia porcellus) (UniProt P47747); assay: Activity at human histamine H2 receptor in guinea pig right atrium; format: functional, tissue-based; details: Cardiac atrium
[6] = biological target: Histamine H2 receptor (Homo sapiens) (UniProt P25021); assay: Agonist activity at human histamine H2 receptor; format: functional
Histamine H2 receptor (Homo sapiens), sequence (P25021 whole entry): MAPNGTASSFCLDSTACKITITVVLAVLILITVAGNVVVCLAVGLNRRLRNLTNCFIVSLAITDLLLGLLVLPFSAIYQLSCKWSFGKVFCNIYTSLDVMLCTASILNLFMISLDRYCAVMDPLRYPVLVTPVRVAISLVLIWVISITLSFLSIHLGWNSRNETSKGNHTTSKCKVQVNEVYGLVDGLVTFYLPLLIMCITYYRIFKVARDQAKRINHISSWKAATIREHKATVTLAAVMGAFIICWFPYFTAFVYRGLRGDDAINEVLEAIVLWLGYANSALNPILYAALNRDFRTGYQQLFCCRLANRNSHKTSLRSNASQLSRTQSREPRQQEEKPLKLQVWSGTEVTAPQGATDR

Histamine H2 receptor (Cavia porcellus), sequence (P47747 whole entry): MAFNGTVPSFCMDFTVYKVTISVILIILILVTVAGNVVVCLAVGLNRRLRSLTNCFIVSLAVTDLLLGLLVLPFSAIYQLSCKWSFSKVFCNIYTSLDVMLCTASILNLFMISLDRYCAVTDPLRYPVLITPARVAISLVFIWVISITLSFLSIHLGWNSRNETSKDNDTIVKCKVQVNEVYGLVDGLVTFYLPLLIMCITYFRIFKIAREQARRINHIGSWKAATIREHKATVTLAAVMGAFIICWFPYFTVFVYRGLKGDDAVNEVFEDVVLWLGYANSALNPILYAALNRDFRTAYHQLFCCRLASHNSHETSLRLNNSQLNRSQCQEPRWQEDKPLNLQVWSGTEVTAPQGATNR
T1 sequence (Q9Y5N1 whole entry): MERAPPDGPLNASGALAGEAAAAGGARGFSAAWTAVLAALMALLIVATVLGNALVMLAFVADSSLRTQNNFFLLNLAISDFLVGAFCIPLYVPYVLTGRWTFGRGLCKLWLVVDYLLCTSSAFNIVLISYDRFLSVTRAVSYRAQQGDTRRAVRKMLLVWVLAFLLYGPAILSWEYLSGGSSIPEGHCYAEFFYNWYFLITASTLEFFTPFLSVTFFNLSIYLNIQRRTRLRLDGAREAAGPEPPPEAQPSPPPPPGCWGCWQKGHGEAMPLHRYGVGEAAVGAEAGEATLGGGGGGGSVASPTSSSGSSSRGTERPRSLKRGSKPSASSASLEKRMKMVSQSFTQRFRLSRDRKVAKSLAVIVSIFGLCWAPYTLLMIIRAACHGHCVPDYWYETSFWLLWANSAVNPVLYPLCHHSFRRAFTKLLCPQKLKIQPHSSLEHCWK
Histamine H1 receptor (Homo sapiens), sequence (P35367 whole entry): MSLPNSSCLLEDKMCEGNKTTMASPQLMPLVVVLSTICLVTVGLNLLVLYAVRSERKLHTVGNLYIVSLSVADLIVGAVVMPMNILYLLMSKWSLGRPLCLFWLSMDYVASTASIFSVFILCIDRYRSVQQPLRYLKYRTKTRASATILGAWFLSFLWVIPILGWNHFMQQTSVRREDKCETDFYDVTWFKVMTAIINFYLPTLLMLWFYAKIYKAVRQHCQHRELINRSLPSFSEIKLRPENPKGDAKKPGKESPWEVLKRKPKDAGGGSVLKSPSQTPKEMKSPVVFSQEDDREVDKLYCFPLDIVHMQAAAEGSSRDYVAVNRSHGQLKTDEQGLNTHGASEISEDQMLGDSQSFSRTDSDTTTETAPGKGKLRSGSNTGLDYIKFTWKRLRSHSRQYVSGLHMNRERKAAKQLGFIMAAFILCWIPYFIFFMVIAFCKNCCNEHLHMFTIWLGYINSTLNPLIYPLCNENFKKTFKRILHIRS

Ki [1]: 3160 nM
Compound: N=C(N)NCCCCSC(=N)N

Compound: N=C(N)NCCNC(=N)N
Ki [1]: 398 nM

Intrinsic activity [2]: 1
Activity [3]: inactive
Ki [4]: 1000 nM
Intrinsic activity [5]: 0.4
pD2 [5]: 3.8
Activity [6]: 50%
Compound: N=C(N)NCCSC(=N)N

Ki [1]: 251 nM
Compound: N=C(N)SCCSC(=N)N

Ki [1]: 7940 nM
Compound: N=C(N)NCCCSC(=N)N

Ki [1]: 3980 nM
Compound: N=C(N)NCCCCCCSC(=N)N
